US7528138B2, “Pyrazolo[1,5-a]pyrimidines useful as inhibitors of protein kinases” (Vertex Pharmaceuticals Incorporated, priority 2004, dated 2009)

Legend:
Aurora-2 = target: T1, Aurora-2 (Homo sapiens, UniProt O14965); assay: Aurora-A (Aurora-2) Inhibition Assay, coupled enzyme assay; type: biochemical; conditions: enzyme inhibition data (Ki), Table 11; read-out: AurA Ki
T1 sequence (O14965 1-403): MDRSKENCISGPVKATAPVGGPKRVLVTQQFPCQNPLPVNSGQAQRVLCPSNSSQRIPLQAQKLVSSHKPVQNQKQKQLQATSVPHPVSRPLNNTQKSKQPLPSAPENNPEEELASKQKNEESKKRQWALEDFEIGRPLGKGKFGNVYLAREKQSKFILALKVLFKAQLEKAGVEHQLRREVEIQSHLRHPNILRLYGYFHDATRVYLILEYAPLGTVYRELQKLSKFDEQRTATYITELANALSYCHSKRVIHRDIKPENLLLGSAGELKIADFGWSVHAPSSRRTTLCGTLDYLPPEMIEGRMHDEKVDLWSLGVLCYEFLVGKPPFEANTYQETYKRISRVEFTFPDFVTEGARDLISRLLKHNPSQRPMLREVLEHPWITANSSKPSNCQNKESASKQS
Procedure: Compounds are screened for their ability to inhibit Aurora-2 using a standard coupled enzyme assay (Fox et al., Protein Sci., (1998) 7, 2249). Assays are carried out in a mixture of 100 mM Hepes (pH7.5), 10 mM MgCl2, 1 mM DTT, 25 mM NaCl, 2.5 mM phosphoenolpyruvate, 300 μM NADH, 30 μg/ml pyruvate kinase and 10 μg/ml lactate dehydrogenase. Final substrate concentrations in the assay are 400 μM ATP (Sigma Chemicals) and 570 μM peptide (Kemptide, American Peptide, Sunnyvale, Calif.). Assays are carried out at 30° C. and in the presence of 40 nM Aurora-2.
An assay stock buffer solution is prepared containing all of the reagents listed above, with the exception of Aurora-2 and the test compound of interest. 55 μl of the stock solution is placed in a 96 well plate followed by addition of 2 μl of DMSO stock containing serial dilutions of the test compound (typically starting from a final concentration of 7.5 μM). The plate is preincubated for 10 minutes at 30° C. and the reaction initiated by addition of 10 μl of Aurora-2. Initial reaction rates are determined with a Molecular Devices SpectraMax Plus plate reader over a 10 minute time course. IC50 and Ki data are calculated from non-linear regression analysis using the Prism software package (GraphPad Prism version 3.0cx for Macintosh, GraphPad Software, San Diego Calif., USA).

Itk = target: T2, Itk (Homo sapiens, UniProt Q08881); assay: ITK Inhibition Assay (Radiometric), radioactive-phosphate incorporation; type: biochemical; conditions: enzyme inhibition data (Ki), Table 11; radiometric or UV assay not stated
T2 sequence (Q08881 1-620): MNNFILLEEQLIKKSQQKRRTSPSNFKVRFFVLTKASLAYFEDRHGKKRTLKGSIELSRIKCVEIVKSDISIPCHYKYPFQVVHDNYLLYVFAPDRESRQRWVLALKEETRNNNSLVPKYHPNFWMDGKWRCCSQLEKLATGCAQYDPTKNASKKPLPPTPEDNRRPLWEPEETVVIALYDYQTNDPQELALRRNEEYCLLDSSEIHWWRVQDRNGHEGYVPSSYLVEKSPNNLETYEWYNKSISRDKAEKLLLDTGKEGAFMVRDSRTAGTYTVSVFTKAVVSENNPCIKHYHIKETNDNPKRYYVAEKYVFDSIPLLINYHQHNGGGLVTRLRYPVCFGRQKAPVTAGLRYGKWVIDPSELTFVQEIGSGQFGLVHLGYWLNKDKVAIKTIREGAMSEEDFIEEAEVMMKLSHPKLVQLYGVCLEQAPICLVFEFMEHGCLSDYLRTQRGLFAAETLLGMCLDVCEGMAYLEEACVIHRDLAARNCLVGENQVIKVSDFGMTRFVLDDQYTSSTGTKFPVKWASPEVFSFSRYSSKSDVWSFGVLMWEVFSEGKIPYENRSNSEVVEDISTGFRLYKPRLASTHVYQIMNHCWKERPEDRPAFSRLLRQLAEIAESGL
How it was run: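 Radiometric 33P incorporation into SAM68 peptide (D332-443) with filter capture and scintillation counting; 10 min pre-incubation then 10 min reaction at 25° C. IC50 format: 30 nM Itk, 15 μM ATP, 2 μM peptide, HEPES pH 7.5. Ki(app) format: 50 nM Itk, 7.5 μM ATP, 3 μM peptide, MOPS pH 7.0.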

| Compound | Ki (Aurora-2) [nM] | Ki (Itk) [nM] |
| --- | --- | --- |
| CCN(C)C(=O)c1cccc(-c2cnc3c(-c4ccccn4)c(N)nn3c2)n1 [Compound V-115] | 500 to 5000 | 500 to 5000 |
| Nc1nn2cc(-c3ccncc3)cnc2c1-c1ncccc1OCc1ccccc1 [Compound V-134] | 500 to 5000 | 500 to 5000 |
| COc1ccccc1Nc1cc(-c2c(N)nn3cc(-c4ccncc4)cnc23)ncn1 [Compound V-242] | < 500 | < 500 |
| CCN(CC)CCN(C)c1ccc(-c2cnc3c(-c4ccccn4)c(N)nn3c2)cn1 [Compound V-173] | 500 to 5000 | < 500 |
| Nc1nn2cc(-c3ccc(CN4CC[C@H](N)C4)cc3)cnc2c1-c1ccccn1 [Compound V-233] | < 500 | < 500 |
| Nc1nn2cc(-c3ccc(CN4CC[C@@H](N)C4)cc3)cnc2c1-c1ccccn1 [Compound V-231] | < 500 | < 500 |
| CC(C)(O)C#Cc1cnc2c(-c3ccccn3)c(N)nn2c1 [Compound V-237] | 500 to 5000 | < 500 |
| Nc1nn2cc(-c3ccc(N4CCNCC4)nc3)cnc2c1-c1ccccn1 [Compound V-151] | 500 to 5000 | < 500 |
| Cc1cccnc1-c1c(N)nn2cc(-c3ccncc3)cnc12 [Compound V-135] | 500 to 5000 | 500 to 5000 |
| Cc1cccc(-c2c(N)nn3cc(-c4ccncc4)cnc23)n1 [Compound V-178] | < 500 | < 500 |
| Nc1nn2cc(-c3ccc(CN4CCNCC4)cc3)cnc2c1-c1ccccn1 [Compound V-217] | < 500 | < 500 |
| CNCCCN(C)Cc1ccc(-c2cnc3c(-c4ccccn4)c(N)nn3c2)cc1 [Compound V-230] | < 500 | < 500 |
| Nc1nn2cc(-c3ccc(C(=O)NC4CCCO4)cn3)cnc2c1-c1ccccn1 (stereo not shown) [Compound V-96] | 500 to 5000 | 500 to 5000 |
| Nc1nn2cc(-c3cccc(C(=O)N4CCCC4CO)n3)cnc2c1-c1ccccn1 (stereo not shown) [Compound V-112] | 500 to 5000 | 500 to 5000 |
| NCc1cccc(-c2cnc3c(-c4ccccn4)c(N)nn3c2)c1 [Compound V-202] | 500 to 5000 | < 500 |
| Nc1nn2cc(C(=O)NC3CCCNC3)cnc2c1-c1ccccn1 (stereo not shown) [Compound V-206] | 500 to 5000 | 500 to 5000 |
| Cc1ccnc(-c2c(N)nn3cc(-c4ccncc4)cnc23)c1 [Compound V-133] | < 500 | 500 to 5000 |
| Nc1nn2cc(-c3ccc(N4CCC[C@H]4CN4CCCC4)nc3)cnc2c1-c1ccccn1 [Compound V-152] | 500 to 5000 | < 500 |
| Nc1nn2cc(-c3cccc(C(=O)N4CCC[C@H]4CN4CCCC4)n3)cnc2c1-c1ccccn1 [Compound V-154] | 500 to 5000 | 500 to 5000 |
| COc1ccc(-c2cnc3c(-c4ccncc4)c(N)nn3c2)cc1 [Compound V-219] | 500 to 5000 | 500 to 5000 |
| CCN(CCC#N)C(=O)c1cccc(-c2cnc3c(-c4ccccn4)c(N)nn3c2)n1 [Compound V-116] | 500 to 5000 | 500 to 5000 |
| CCN1CCN(c2ccc(-c3cnc4c(-c5ccccn5)c(N)nn4c3)cn2)CC1 [Compound V-166] | 500 to 5000 | < 500 |
| CC(C)CN(C)C(=O)c1ccc(-c2cnc3c(-c4ccccn4)c(N)nn3c2)nc1 [Compound V-97] | < 500 | < 500 |
| CCCN(CC)c1cc(-c2c(N)nn3cc(-c4ccncc4)cnc23)ncn1 [Compound V-244] | < 500 | < 500 |
| CNCCCN(C)C(=O)c1ccc(-c2cnc3c(-c4ccccn4)c(N)nn3c2)cc1 [Compound V-191] | < 500 | < 500 |
| CN(C)CCN(C)C(=O)c1ccc(-c2cnc3c(-c4ccccn4)c(N)nn3c2)cc1 [Compound V-188] | < 500 | < 500 |
| NC1CCN(Cc2cccc(C3=CN4NC(N)C(c5ccccn5)=C4N=C3)c2)CC1 (stereo not shown) [Compound V-229] | 500 to 5000 | < 500 |
| CS(=O)(=O)Nc1cccc(-c2cnc3c(-c4ccccn4)c(N)nn3c2)c1 [Compound V-18] | < 500 | < 500 |
| CN(CCCN)C(=O)c1cccc(-c2cnc3c(-c4ccccn4)c(N)nn3c2)n1 [Compound V-155] | 500 to 5000 | < 500 |
